Results reported in the NIST ThermoML archive (doi:10.1016/j.jct.2014.11.001).
Where “and” joins values, the source holds several entries; their conditions need not be identical. Equal entries are not always repeated.

How the values were obtained:
[1] = Molar enthalpy of transition or fusion; conditions: Crystal; DSC

NC(=O)c1cccnc1 [3-pyridinecarboxamide]
Conditions	Molar enthalpy of transition or fusion [kcal/mol]
[1]	5.66

Conditions	vapor or sublimation pressure
341.25 K, Crystal, Calculated from knudsen effusion weight loss	9.3e-05 kPa
343.28 K, Crystal, Calculated from knudsen effusion weight loss	0.000117 kPa and 0.000116 kPa
345.05 K, Crystal, Calculated from knudsen effusion weight loss	0.000142 kPa and 0.000141 kPa and 0.000144 kPa
347.23 K, Crystal, Calculated from knudsen effusion weight loss	0.000182 kPa and 0.000183 kPa and 0.000184 kPa
349.26 K, Crystal, Calculated from knudsen effusion weight loss	0.000228 kPa and 0.000226 kPa and 0.00023 kPa
351.07 K, Crystal, Calculated from knudsen effusion weight loss	0.000277 kPa and 0.000275 kPa and 0.00028 kPa
353.24 K, Crystal, Calculated from knudsen effusion weight loss	0.000356 kPa and 0.000352 kPa
355.27 K, Crystal, Calculated from knudsen effusion weight loss	0.000434 kPa and 0.00043 kPa and 0.000436 kPa
356.6 K, Crystal, Closed cell (Static) method	0.00051 kPa
357.06 K, Crystal, Calculated from knudsen effusion weight loss	0.000528 kPa and 0.000517 kPa and 0.000525 kPa
358.66 K, Crystal, Closed cell (Static) method	0.00063 kPa
359.25 K, Crystal, Calculated from knudsen effusion weight loss	0.000666 kPa and 0.000648 kPa and 0.000656 kPa
360.58 K, Crystal, Closed cell (Static) method	0.00078 kPa
361.29 K, Crystal, Calculated from knudsen effusion weight loss	0.000812 kPa and 0.000792 kPa and 0.000807 kPa
363.06 K, Crystal, Calculated from knudsen effusion weight loss	0.000975 kPa and 0.000964 kPa and 0.00097 kPa
364.49 K, Crystal, Closed cell (Static) method	0.00116 kPa
366.57 K, Crystal, Closed cell (Static) method	0.00143 kPa
368.47 K, Crystal, Closed cell (Static) method	0.00172 kPa
370.51 K, Crystal, Closed cell (Static) method	0.00211 kPa
372.43 K, Crystal, Closed cell (Static) method	0.00255 kPa
374.46 K, Crystal, Closed cell (Static) method	0.00311 kPa
376.31 K, Crystal, Closed cell (Static) method	0.00371 kPa
378.39 K, Crystal, Closed cell (Static) method	0.00451 kPa
380.33 K, Crystal, Closed cell (Static) method	0.00536 kPa
382.34 K, Crystal, Closed cell (Static) method	0.00647 kPa
384.22 K, Crystal, Closed cell (Static) method	0.00767 kPa
386.28 K, Crystal, Closed cell (Static) method	0.00925 kPa
388.17 K, Crystal, Closed cell (Static) method	0.01094 kPa
390.23 K, Crystal, Closed cell (Static) method	0.01311 kPa
392.23 K, Crystal, Closed cell (Static) method	0.01553 kPa
394.43 K, Crystal, Closed cell (Static) method	0.01868 kPa
396.07 K, Metastable liquid, Closed cell (Static) method	0.02388 kPa
396.08 K, Crystal, Closed cell (Static) method	0.02158 kPa
398.04 K, Metastable liquid, Closed cell (Static) method	0.02729 kPa
398.1 K, Crystal, Closed cell (Static) method	0.02563 kPa
400.07 K, Metastable liquid, Closed cell (Static) method	0.03101 kPa
402.04 K, Metastable liquid, Closed cell (Static) method	0.0351 kPa
404.02 K, Closed cell (Static) method, Liquid	0.03991 kPa
405.98 K, Closed cell (Static) method, Liquid	0.04492 kPa
407.93 K, Closed cell (Static) method, Liquid	0.05046 kPa
409.92 K, Closed cell (Static) method, Liquid	0.05717 kPa
411.89 K, Closed cell (Static) method, Liquid	0.06456 kPa
413.87 K, Closed cell (Static) method, Liquid	0.07284 kPa
415.82 K, Closed cell (Static) method, Liquid	0.08179 kPa
417.81 K, Closed cell (Static) method, Liquid	0.09162 kPa
419.77 K, Closed cell (Static) method, Liquid	0.103 kPa
421.72 K, Closed cell (Static) method, Liquid	0.1152 kPa
423.69 K, Closed cell (Static) method, Liquid	0.1283 kPa
425.65 K, Closed cell (Static) method, Liquid	0.1428 kPa
427.62 K, Closed cell (Static) method, Liquid	0.1598 kPa
429.58 K, Closed cell (Static) method, Liquid	0.1773 kPa
431.56 K, Closed cell (Static) method, Liquid	0.1973 kPa
433.69 K, Closed cell (Static) method, Liquid	0.2206 kPa

Conditions	Normal melting temperature [°C]
Crystal, DTA	128.1
